Test results: patent US20230193262A1, “Nucleic acid molecules capable of modulating target gene expression and uses thereof” (KOREA ADVANCED INSTITUTE OF SCIENCE AND TECHNOLOGY, priority 2021, published 2023)
Entries after “also recorded” stand apart in the source; their conditions may differ. In the oligonucleotide strings, read from the 5' end, every base follows the letter of its sugar. An asterisk marks phosphorothioate; unmarked linkages are phosphodiester. Other units and linkages are bracketed, terminal groups are in braces. A string of capitals states the bases alone. d = 2'-deoxy (DNA)

What was measured:
Format in all cases: cell-based
cells = experiment: Cytotoxicity (CCK-8 cell viability) of chemically modified miRNA triggers
Experimental: (§1) The miRNA triggers were assayed for cytotoxicity and apoptosis induction, using the CCK-8 (Cell Counting Kit-8) (Dojindo, Kumamoto, Japan) according to the manufacturer's instruction. Cells were incubated in 96-well plates (5×10^3 cells/well) at 37° C. for 24 hours under a 5% CO2 atmosphere, followed by transfection. Three days after transfection, the medium was removed. A 10-fold dilution of CCK-8 solution in DMEM was added to the cells which were then incubated at 37° C. for 2 hours. After incubation, absorbance was read at 450 nm on Tecan Infinite M200 pro microplate reader (Mnnedorf, Switzerland).
In addition, FPS HP and 2′-OMe HP, which were the most resistant to degradation in biological samples, were analyzed for cytotoxicity. In this regard, the HP in which the entire nucleotides of miRNA trigger (LP) were modified with PS (expressed as PS in Table 6 and FIG. 6), the linear probe in which the entire nucleotides of miRNA trigger (LP) were modified with 2′-O-Me (expressed as 2′O-me in Table 6 and FIG. 6), the control DNA LP (expressed as DNA in Table 6 and FIG. 6), or siRNA was transfected into cells which were then measured for cell viability using the method of Reference Example 9. The result is depicted in FIG. 6. […]

miR-155 = miR-155 expression after treatment with AML therapeutic agents; conditions: FLT3-ITD mutated AML cell line (NOLM-14); IC50 dose, 37° C., 72 hours
Experimental: The FLT3-ITD mutated AML cell line (NOLM-14) was treated with an IC50 dose of cytarabine, azacitidine, decitabine, venetoclax, or gilteritinib, which is used as standard therapeutic agents for AML, at 37° C. for 72 hours, followed by measuring expression levels of miR-155.

[1] = test system: MCF-7 breast cancer cells; experiment: Cell viability / apoptosis in MCF-7; conditions: single siRNA, final concentration 60 nM
Experimental: as §1
An siRNA targeting bcl-2, bcl-xL, or mcl-1 was transfected into MCF-7 breast cancer cells and PANC-1 pancreatic cancer cells. By using qRT-PCR, establishment was made of a condition under which the expression of each target gene is decreased by 80% or more (transfection was performed at a concentration of 60 nM with the aid of Lipofectamine). As a negative control, a Luc (Luciferase)-targeting siRNA (siLuc) was used. Under the same condition of decreasing the expression of each target gene by 80% or more, the cells transfected with the siRNAs were measured for apoptosis, and the results are depicted in FIGS. 14a and 14b.
Linear miRNA triggers that could bind to miR-141 or let7f and target bcl-xL or mcl-1 were prepared and transfected alone or in combination into the breast cancer cell line MCF-7 which was then measured for cell viability. Every nucleotide of the triggers and controls was chemically modified with 2′-OMe.
First, MCF-7 was measured for cell viability after treatment with siMCL-1, siBCL-xL, and siBCL-2 (FIG. 48). […] The final concentration of the siRNAs was 60 nM.
Next, examination was made of the apoptosis when two or more genes were regulated together. MCF-7 was measured for cell viability after treatment with siMCL-1+siBCL-xL, siMCL-1+siBCL-2, siBCL-xL+siBCL-2, and siMCL-1+siBCL-xL+siBCL-2 (FIG. 49).
Finally, experiments under all the conditions (individual and simultaneous regulation) were conducted simultaneously so as to compare effects thereof. […]

GFP mRNA = experiment: GFP fluorescence intensity in GFP-expressing Hela-141 cells; conditions: siGFP compared to siLuc, trigger 30 to 60 nM
Description: A GFP fluorescent protein-expressing plasmid (used in Chen L L, DeCerbo J N, Carmichael G G. 2008. Alu element-mediated gene silencing. EMBO J 27: 1694-1705) was transfected into Hela-141 cells to prepare GFP-expressing Hela-141 cells. As stated in Reference Example 1, a linear miRNA trigger (LP; GFP_141_141), which can target GFP mRNA (=complementarily bind to GFP mRNA to regulate the expression of GFP) and complementarily bind to miR-141, and siRNAs which target GFP and Luc (Luciferase), respectively, were synthesized in Bioneer Inc. Sequences of the LP and siRNAs and types and positions of chemical modifications in each sequence are listed in Table 8, below.
Above all, siLuc and siGFP were transfected into the GFP-expressing Hela-141 cells which were then measured for fluorescence intensity on an ELISA reader. […] In addition, the linear miRNA trigger (GFP(1)_141_141) was transfected into the GFP-expressing Hela-141 cells which were then measured for fluorescence intensity. The result is depicted in FIG. 8. For the transfection, the GFP plasmid and GFP_141_141 were used at a concentration of 0.5 to 1 μg/ml and 30 to 60 nM, respectively.

Hela cells = experiment: Cell viability / apoptosis (CCK-8) in Hela cells
Experimental: as §1
(§2) The linear miRNA triggers or siRNAs (siLuc and siMcl-1) prepared above were transfected into Hela, Hela-141, and Hela-200c cells which were then measured for cell viability. The results are depicted in FIG. 15.
(§3) The hairpin miRNA triggers prepared above were transfected into Hela and Hela-141 cells which were then assayed for apoptosis. As a control, the siRNA (siMcl-1; Table 14) which can repress the expression of mcl-1 was transfected to Hela and Hela-141 cells and measured for apoptotic activity.

Hela-141 cells = experiment: Cell viability / apoptosis (CCK-8) in Hela-141 cells; conditions: Hela-141 cells
Experimental: as §1, §2, §3

Hela-200c cells = experiment: Cell viability / apoptosis (CCK-8) in Hela-200c cells
Experimental: as §1, §2

With “2′-O-Me: linear probe, entire nucleotides modified with 2′-O-Me; SEQ ID NO 38 (UCGAAGUACUCAGCGUAAGUUCGAAGUACUCAGCGUAAGUUCGAAGUACUCAGCGUAAGU; all 2'-O-methyl, backbone not given here)” the “cell viability versus non-transfected negative control (NT)” value (cells; CCK-8) was “not significantly different in viability from the negative control”.

`Nc1ncn([C@@H]2O[C@H](CO)[C@@H](O)[C@H]2O)c(=O)n1` [azacitidine] was tested, and the miR-155 expression (miR-155) was “did not repress miR-155 express”.

With `Nc1ccn([C@@H]2O[C@H](CO)[C@@H](O)[C@@H]2O)c(=O)n1` [cytarabine] the miR-155 expression (miR-155) was “did not repress miR-155 express”.

For “PS: miRNA trigger (LP), entire nucleotides modified with PS, random sequences; SEQ ID NO 37 (dT*dC*dG*dA*dA*dG*dT*dA*dC*dT*dC*dA*dG*dC*dG*dT*dA*dA*dG*dT*dT*dC*dG*dA*dA*dG*dT*dA*dC*dT*dC*dA*dG*dC*dG*dT*dA*dA*dG*dT*dT*dC*dG*dA*dA*dG*dT*dA*dC*dT*dC*dA*dG*dC*dG*dT*dA*dA*dG*dT)”, the cell viability (cells; transfected cells, CCK-8, random sequences) was “less than 40%”.

“siBcl-xL: siRNA targeting bcl-xL; SEQ ID NO 63 (UUGGUCCCUCAGUAUGGUC; listed as RNA, chemistry not given here)” was tested, and the “apoptosis (cell viability)” value [1] was “apoptosis was detected”.

“siGFP: siRNA which targets GFP; SEQ ID NO 44 (UUAUGUUUCAGGUUCAGGG; RNA, backbone not given here) [reference compound]” was tested, and the GFP fluorescence intensity (GFP mRNA) was “significantly reduced fluorescence intensity”.

“siMcl-1: siRNA targeting mcl-1; SEQ ID NO 64 (AAAUUCGAUACUUCCUUCG; listed as RNA, chemistry not given here) [reference compound]” was tested, and the “apoptosis / cell viability” value (Hela cells) was “induced apoptosis; also recorded: apoptotic effect”, the “apoptosis / cell viability” value (Hela-141 cells) was “induced apoptosis; also recorded: apoptotic effect” and the “apoptosis / cell viability” value (Hela-200c cells) was “induced apoptosis”. The “apoptosis (cell viability)” value [1] was “apoptosis was detected; also recorded: greatest apoptosis”.

B1: GFP(1)_141_141: linear miRNA trigger targeting GFP mRNA and binding miR-141; SEQ ID NO 41 (nucleic acid)
chain: CCAUCUUUACCUCACAGUGUUACCAUCUUUACCUCACAGUGUUAUUAUGUUUCAGGUUCAGGGGGA
modifications: all 2'-O-methyl, backbone not given here
In the case of B1, the GFP fluorescence intensity (GFP mRNA) is reported as “reduced GFP fluorescence intensity in a dose-dependent manner”.
